Data reported in ChEMBL document CHEMBL1153496, “SAR studies on azasterols as potential anti-trypanosomal and anti-leishmanial agents” (Bioorg Med Chem, 2009).

tested on: not listed separately; assay: Cytotoxicity against rat L6 cells; type: cell-based; conditions: read-out: TD50 (the source's name)

Row | Compound | CC50 [µM]
1 | CC(=O)O[C@H]1CC[C@@]2(C)C(=CC[C@H]3[C@@H]4CC[C@H]([C@H](C)CCCNCCCCCC(=O)O)[C@@]4(C)CC[C@@H]32)C1 | 56
2 | COC(=O)CCCCCNC(=O)CC[C@@H](C)[C@H]1CC[C@H]2[C@@H]3CC=C4C[C@@H](OC(C)=O)CC[C@]4(C)[C@H]3CC[C@]12C | > 165
3 | COC(=O)CCCCCNCCC[C@@H](C)[C@H]1CC[C@H]2[C@@H]3CC=C4C[C@@H](OC(C)=O)CC[C@]4(C)[C@H]3CC[C@]12C | 7.4
4 | COC(=O)CCCNCCC[C@@H](C)[C@H]1CC[C@H]2[C@@H]3CC=C4C[C@@H](OC(C)=O)CC[C@]4(C)[C@H]3CC[C@]12C | 5.8
5 | CC(=O)O[C@H]1CC[C@@]2(C)C(=CC[C@H]3[C@@H]4CC[C@H]([C@H](C)CCCN5CCCC5=O)[C@@]4(C)CC[C@@H]32)C1 | 2.5
6 | CC(=O)O[C@H]1CC[C@@]2(C)C(=CC[C@H]3[C@@H]4CC[C@H]([C@H](C)CCC(=O)N(C)C)[C@@]4(C)CC[C@@H]32)C1 | > 202
7 | COC(=O)CCCNC(=O)CC[C@@H](C)[C@H]1CC[C@H]2[C@@H]3CC=C4C[C@@H](OC(C)=O)CC[C@]4(C)[C@H]3CC[C@]12C | > 174

tested on: not listed separately; assay: Inhibition of Saccharomyces cerevisiae SMT; conditions: not given

Row | IC50 [µM] | Compound
8 | 0.08 | C[C@H](CCCN(C)C)[C@H]1CC[C@H]2C3=C(CC[C@]12C)[C@@]1(C)CC[C@H](O)C[C@@H]1CC3

tested on: Trypanosoma brucei rhodesiense; assay: Antitrypanosomal activity against Trypanosoma brucei rhodesiense blood stream form; type: functional, organism-based; conditions: not given

Row | Compound | EC50 [µM]
9 | COC(=O)CCCNC[C@@H](C)[C@H]1CC[C@H]2[C@@H]3CC=C4C[C@@H](OC(C)=O)CC[C@]4(C)[C@H]3CC[C@]12C | 0.012
10 | CC(=O)O[C@H]1CC[C@@]2(C)C(=CC[C@H]3[C@@H]4CC[C@H]([C@H](C)CCCNCCCCCC(=O)O)[C@@]4(C)CC[C@@H]32)C1 | 11.2
11 | COC(=O)CCCNCCC[C@@H](C)[C@H]1CC[C@H]2[C@@H]3CC=C4C[C@@H](OC(C)=O)CC[C@]4(C)[C@H]3CC[C@]12C | 1.8
12 | CC(=O)O[C@H]1CC[C@@]2(C)C(=CC[C@H]3[C@@H]4CC[C@H]([C@H](C)CCC(=O)N(C)C)[C@@]4(C)CC[C@@H]32)C1 | 21.7
13 | COC(=O)CCCNC(=O)CC[C@@H](C)[C@H]1CC[C@H]2[C@@H]3CC=C4C[C@@H](OC(C)=O)CC[C@]4(C)[C@H]3CC[C@]12C | 18.4

The remaining lines, values ahead:

Row | EC50 [µM] | Compound
14 | 14.6 | COC(=O)CCCCCNC(=O)CC[C@@H](C)[C@H]1CC[C@H]2[C@@H]3CC=C4C[C@@H](OC(C)=O)CC[C@]4(C)[C@H]3CC[C@]12C
15 | 2 | COC(=O)CCCCCNCCC[C@@H](C)[C@H]1CC[C@H]2[C@@H]3CC=C4C[C@@H](OC(C)=O)CC[C@]4(C)[C@H]3CC[C@]12C
16 | 38.3 | CC(=O)O[C@H]1CC[C@@]2(C)C(=CC[C@H]3[C@@H]4CC[C@H]([C@H](C)CCCN5CCCC5=O)[C@@]4(C)CC[C@@H]32)C1

tested on: Trypanosoma cruzi; assay: Antitrypanosomal activity against Trypanosoma cruzi amastigotes; type: functional, organism-based; conditions: not given

Row | Compound | EC50 [µM]
17 | COC(=O)CCCNC[C@@H](C)[C@H]1CC[C@H]2[C@@H]3CC=C4C[C@@H](OC(C)=O)CC[C@]4(C)[C@H]3CC[C@]12C | 24.7
18 | CC(=O)O[C@H]1CC[C@@]2(C)C(=CC[C@H]3[C@@H]4CC[C@H]([C@H](C)CCCNCCCCCC(=O)O)[C@@]4(C)CC[C@@H]32)C1 | 28.9
19 | COC(=O)CCCNCCC[C@@H](C)[C@H]1CC[C@H]2[C@@H]3CC=C4C[C@@H](OC(C)=O)CC[C@]4(C)[C@H]3CC[C@]12C | 7.4
20 | CC(=O)O[C@H]1CC[C@@]2(C)C(=CC[C@H]3[C@@H]4CC[C@H]([C@H](C)CCC(=O)N(C)C)[C@@]4(C)CC[C@@H]32)C1 | 28.2
21 | COC(=O)CCCNC(=O)CC[C@@H](C)[C@H]1CC[C@H]2[C@@H]3CC=C4C[C@@H](OC(C)=O)CC[C@]4(C)[C@H]3CC[C@]12C | 19.7

Next, values leading:

Row | EC50 [µM] | Compound
22 | 23 | COC(=O)CCCCCNC(=O)CC[C@@H](C)[C@H]1CC[C@H]2[C@@H]3CC=C4C[C@@H](OC(C)=O)CC[C@]4(C)[C@H]3CC[C@]12C
23 | 11.1 | COC(=O)CCCCCNCCC[C@@H](C)[C@H]1CC[C@H]2[C@@H]3CC=C4C[C@@H](OC(C)=O)CC[C@]4(C)[C@H]3CC[C@]12C
24 | 25 | CC(=O)O[C@H]1CC[C@@]2(C)C(=CC[C@H]3[C@@H]4CC[C@H]([C@H](C)CCCN5CCCC5=O)[C@@]4(C)CC[C@@H]32)C1

tested on: KB; assay: Cytotoxicity against human KB cells; type: functional, cell-based; conditions: not given

Row | Compound | EC50 [µM]
25 | COC(=O)CCCNC[C@@H](C)[C@H]1CC[C@H]2[C@@H]3CC=C4C[C@@H](OC(C)=O)CC[C@]4(C)[C@H]3CC[C@]12C | 19.2

tested on: Leishmania donovani; assay: Antitrypanosomal activity against Leishmania donovani amastigotes; type: functional, organism-based; conditions: not given

Row | Compound | EC50 [µM]
26 | COC(=O)CCCNC[C@@H](C)[C@H]1CC[C@H]2[C@@H]3CC=C4C[C@@H](OC(C)=O)CC[C@]4(C)[C@H]3CC[C@]12C | 19.2
27 | CC(=O)O[C@H]1CC[C@@]2(C)C(=CC[C@H]3[C@@H]4CC[C@H]([C@H](C)CCCNCCCCCC(=O)O)[C@@]4(C)CC[C@@H]32)C1 | 11.4
28 | COC(=O)CCCCCNC(=O)CC[C@@H](C)[C@H]1CC[C@H]2[C@@H]3CC=C4C[C@@H](OC(C)=O)CC[C@]4(C)[C@H]3CC[C@]12C | 1.6
29 | COC(=O)CCCCCNCCC[C@@H](C)[C@H]1CC[C@H]2[C@@H]3CC=C4C[C@@H](OC(C)=O)CC[C@]4(C)[C@H]3CC[C@]12C | 11.7
30 | COC(=O)CCCNCCC[C@@H](C)[C@H]1CC[C@H]2[C@@H]3CC=C4C[C@@H](OC(C)=O)CC[C@]4(C)[C@H]3CC[C@]12C | 23.8
31 | CC(=O)O[C@H]1CC[C@@]2(C)C(=CC[C@H]3[C@@H]4CC[C@H]([C@H](C)CCCN5CCCC5=O)[C@@]4(C)CC[C@@H]32)C1 | 13.9
32 | CC(=O)O[C@H]1CC[C@@]2(C)C(=CC[C@H]3[C@@H]4CC[C@H]([C@H](C)CCC(=O)N(C)C)[C@@]4(C)CC[C@@H]32)C1 | 24.6
33 | COC(=O)CCCNC(=O)CC[C@@H](C)[C@H]1CC[C@H]2[C@@H]3CC=C4C[C@@H](OC(C)=O)CC[C@]4(C)[C@H]3CC[C@]12C | 3.1
